In patent publication US5202339A, “Hydantoin derivatives” (Mochida Pharmaceutical Co., Ltd., priority 1987, dated 1993):
pIC50: −log10 of the molar value. Entries after “also recorded” stand apart in the source; their conditions may differ.

Experiments:
[1] = molecular target: T1, rat lens aldose reductase (Rattus norvegicus, UniProt P07943); experiment: inhibitory activity on rat lens aldose reductase (Experimental Example 1); format: biochemical; settings: pH 6.2, 10 mM DL-glyceraldehyde, 0.16 mM NADPH
T1 construct: rat lens aldose reductase; from tissue; host or cells: rat lens
Procedure: The inhibitory activities of hydantoin derivatives on rat lens aldose reductase were measured according to the procedure of Inagaki et al. (K. Inagaki et al., Arch. Biochem. Biophys., 216, 337 (1982)) with slight modifications. Assays were performed in 0.1M phosphate buffer (pH 6.2) containing 0.4M ammonium sulfate, 10 mM DL-glyceraldehyde, 0.16 mM nicotinamide adenine dinucleotide phosphate, reduced form (NADPH) and aldose reductase (0.010-0.016 units) in a total volume of 1.0 ml. To this mixture was added 10 μl of the solution of each hydantoin derivative to be tested, and the decrease in absorbance at 340 nm was measured with a spectrophotometer.
The concentrations of typical hydantoin derivatives of the present invention required to produce 50% inhibition are shown in table 1.

[2] = tested on: Streptozotocin-Diabetic Rats; experiment: Hypoglycemic Effects in Streptozotocin-Diabetic Rats (Experimental Example 4); format: in vivo, rat (male Wistar); settings: STZ-diabetic rats, 100 mg/kg oral; for inhibition in vivo at 100 mg/kg: Rattus norvegicus, 6 hrs after administration, read-out: Lowering rate of serum glucose (%)
Procedure: (§1) Diabetic rats were produced according to the method of Junod et al. (A. Junod et al., J. Clin. Invest., 48, 2129 (1969)). Briefly, male Wistar rats were given 26.5 mg/kg of streptozotocin (STZ) intravenously. Four days later, the rats with serum glucose levels of between 400 and 500 mg/dl were used. After being fasted for 4 hrs, groups of 5 diabetic rats were orally administered with the compounds of the present invention or gliclazide in a dose of 100 mg/kg. Blood sample were collected from the orbital vein before and 6 hrs after the administration. Serum glucose levels were determined by the enzymatic method with an autoanalyzer (Cobas Fara®, Roche).

[3] = tested on: ICR strain mice; experiment: acute toxicity in mice (Experimental Example 3); format: in vivo; settings: 1 g/kg, oral, groups of 5 ICR mice
Text: Hydantoin derivatives of the present invention were examined for acute toxicity.

[4] = molecular target: T2, bovine lens aldose reductase (Bos taurus, UniProt P16116); experiment: inhibitory activity on bovine lens aldose reductase (Experimental Example 2); format: biochemical; settings: for pIC50: pH 6.2, 10 mM DL-glyceraldehyde, 0.16 mM NADPH
T2 construct: bovine lens aldose reductase preparation was used; from tissue; host or cells: bovine lens
Procedure: Assays were performed in 0.1M phosphate buffer (pH 6.2) containing 0.4M ammonium sulfate, 10 mM DL-glyceraldehyde, 0.16 mM nicotinamide adenine dinucleotide phosphate, reduced form (NADPH) and aldose reductase (0.010-0.016 units) in a total volume of 1.0 ml. To this mixture was added 10 μl of the solution of each hydantoin derivative to be tested, and the decrease in absorbance at 340 nm was measured with a spectrophotometer.

[5] = tested on: Normal Rats; experiment: Hypoglycemic Effects in Normal Rats (Experimental Example 6); format: in vivo, rat (male Wistar); settings: normal animals
Procedure: Groups of 5 male Wistar rats, after being fasted for 4 hrs, where orally administered with compound 38 or 47 of the present invention or gliclazide. Blood samples were collected from the orbital vein before, 1 hr and 6 hrs after the administration. Serum glucose levels were determined by the enzymatic method with an autoanalyzer (Cobas Fara®, Roche).

[6] = tested on: Streptozotocin-Diabetic Rats; experiment: Hypolipidemic Effects in Streptozotocin-Diabetic Rats (Experimental Example 7); format: in vivo, rat (male Wistar); settings: STZ-diabetic rats, 100 mg/kg oral for 2 weeks
Procedure: as §1
(§2) Diabetic rats were produced according to the method described previously. Groups of 5 diabetic rats were orally administered with compound 38 or 47 of the present invention at a dose of 100 mg/kg for 2 weeks. The rats were deprived of food 4 hrs before the last administration, and 6 hrs after the last administration, blood samples were collected from the orbital vein. Serum triglyceride (TG), non-esterified fatty acid (NEFA) and cholesterol (CHOL) levels were determined by the enzymatic method with an autoanalyzer (Cobas Fara®, Roche). In this experiment, each parameters of serum lipids in streptozotocin-diabetic rats increased by 40 % of normal rats in the mean value.

[7] = tested on: Streptozotocin-Diabetic Rats; experiment: Ketone Body Lowering Effects in Streptozotocin-Diabetic Rats (Experimental Example 5); format: in vivo, rat (male Wistar); settings: STZ-diabetic rats, oral for 2 weeks
Procedure: as §1
as §2, with “invention” for “invention at a dose of 100 mg/kg”, “total ketone body (KB)” for “triglyceride (TG), non-esterified fatty acid (NEFA) and cholesterol (CHOL)”, “experiment,” for “experiment, each parameters of”, “total ketone body levels” for “lipids”, “92” for “40”

`O=C1CN(S(=O)(=O)c2ccc3ccccc3c2Cl)C(=O)N1` [Compound 1, 1-(1-chloronaphthalen-2-ylsulfonyl)hydantoin] gave a pIC50 [1] of 6.54 and an inhibition in vivo at 100 mg/kg [2] of 37.2%.

`O=C1CN(S(=O)(=O)c2ccc3c(Cl)cccc3c2)C(=O)N1` [Compound 3, 1-(5-chloronaphthalen-2-ylsulfonyl)hydantoin] gave a pIC50 [1] of 6.72 and an inhibition in vivo at 100 mg/kg [2] of 19%.

With `O=C1CN(S(=O)(=O)c2cc3ccc(Cl)cc3cc2Cl)C(=O)N1` [Compound 7, 1-(3,6-dichloronaphthalen-2-ylsulfonyl)hydantoin] the “acute toxicity: change observed over the one-week period after administration” value (“acute toxicity: change observed” below) [3] was “no change was observed”, the pIC50 [1] was 6.62 and the inhibition in vivo at 100 mg/kg [2] was 23.2%.

`O=C1CN(S(=O)(=O)c2cc3ccccc3cc2Br)C(=O)N1` [Compound 9, 1-(3-bromonaphthalen-2-ylsulfonyl)hydantoin] showed a pIC50 [1] of 6.46 and an inhibition in vivo at 100 mg/kg [2] of 17.4%.

For `O=C1CN(S(=O)(=O)c2cc3ccccc3o2)C(=O)N1` [Compound 19, 1-(benzo[b]furan-2-ylsulfonyl)hydantoin], the “acute toxicity: change observed” value [3] was “no change was observed” and the inhibition in vivo at 100 mg/kg [2] was 52.1%.

With `O=C1CN(S(=O)(=O)c2cc3cc(Cl)ccc3o2)C(=O)N1` [Compound 20, 1-(5-chlorobenzo[b]furan-2-ylsulfonyl)hydantoin] the “acute toxicity: change observed” value [3] was “no change was observed”, the pIC50 [4] was 6.44 and the inhibition in vivo at 100 mg/kg [2] was 12.8%.

For `O=C1CN(S(=O)(=O)c2cc3cc(Br)ccc3o2)C(=O)N1` [Compound 21, 1-(5-bromobenzo[b]furan-2-ylsulfonyl)hydantoin], the “acute toxicity: change observed” value [3] was “no change was observed”, the pIC50 [4] was 6.52 and the inhibition in vivo at 100 mg/kg [2] was 22.3%.

With `O=C1CN(S(=O)(=O)c2cc(Cl)sc2Cl)C(=O)N1` [Compound 24, 1-(2,5-dichlorothiophen-3-ylsulfonyl)hydantoin] the “acute toxicity: change observed” value [3] was “no change was observed”, the “potency compared with compound 13 and 15” value ([4]; in words) was “as potent as compound 13 and 15” and the pIC50 [4] was 6.54.

For `O=C1CN(S(=O)(=O)c2oc3ccccc3c2Br)C(=O)N1` [Compound 38, 1-(3-bromobenzo[b]furan-2-ylsulfonyl)hydantoin], the “influence on serum glucose level of normal rats (in words)” value (“influence on serum glucose level” for short) [5] was “lesser influences on serum glucose level of normal rats”, the “acute toxicity: change observed” value [3] was “no change was observed” and the pIC50 [4] was 6.80. The “lowering of serum lipid levels (in words)” value [6] was “lowering activities of serum triglyceride, non esterified fatty acid and cholesterol levels”, the “lowering of serum total ketone body levels (in words)” value [7] was “lowering activity of serum total ketone body levels” and the inhibition in vivo at 100 mg/kg [2] was 33.5%.

With `O=C1CN(S(=O)(=O)c2cc3c(Cl)cccc3s2)C(=O)N1` [Compound 40, 1-(4-chlorobenzo[b]thiophen-2-yl-sulfonyl)hydantoin] the “acute toxicity: change observed” value [3] was “no change was observed”, the pIC50 [4] was 6.77 and the inhibition in vivo at 100 mg/kg [2] was 11%.

`O=C1CN(S(=O)(=O)c2cc3c(Cl)c(Cl)ccc3o2)C(=O)N1` [Compound 44, 1-(4,5-dichlorobenzo[b]furan-2-yl-sulfonyl)hydantoin] was tested, and the “acute toxicity: change observed” value [3] was “no change was observed”, the pIC50 [4] was 7.21 and the inhibition in vivo at 100 mg/kg [2] was 21.1%.

In the case of `O=C1CN(S(=O)(=O)c2cc3cc(Cl)c(Cl)cc3o2)C(=O)N1` [Compound 45, 1-(5,6-dichlorobenzo[b]furan-2-yl-sulfonyl)hydantoin], the “acute toxicity: change observed” value [3] was “no change was observed”, the pIC50 [4] was 7.08 and the inhibition in vivo at 100 mg/kg [2] was 28.5%.

`O=C1CN(S(=O)(=O)c2oc3ccccc3c2Cl)C(=O)N1` [Compound 47, 1-(3-chlorobenzo[b]furan-2-ylsulfonyl)hydantoin] was tested, and the “influence on serum glucose level” value [5] was “lesser influences on serum glucose level of normal rats”, the “lowering of serum lipid levels (in words)” value [6] was “lowering activities of serum triglyceride, non esterified fatty acid and cholesterol levels” and the “lowering of serum total ketone body levels (in words)” value [7] was “lowering activity of serum total ketone body levels”. For the same compound, the inhibition in vivo at 100 mg/kg [2] was 44.7%.

In the case of `Cc1ccc(S(=O)(=O)NC(=O)NN2CC3CCCC3C2)cc1` (stereo not drawn) [Compound C, gliclazide, reference compound], the “influence on serum glucose level” value [5] was “significantly lowered serum glucose level of normal rats; also recorded: remarkable hypoglycemic activity in normal animals”, the inhibition in vivo at 100 mg/kg [2] was 11% and the “hypoglycemic activity in diabetic animals (in words)” value [2] was “less potent hypoglycemic activity than all compounds of the present invention”.
